Data published in the NIST ThermoML archive (doi:10.1021/je700096m).
Numbers after ± are expanded uncertainties.

Experiment: xn = mol fraction of the nth substance listed
Conditions: 298.15 K, Liquid

CCCCCl [1-chlorobutane] + CN(C)C=O
mass density [kg/m3]
Conditions	x2 = 0.0998	x2 = 0.1981	x2 = 0.2988	x2 = 0.4019	x2 = 0.501	x2 = 0.6087	x2 = 0.7008	x2 = 0.8163	x2 = 0.9007
100 kPa	885.5 ± 0.4	890.7 ± 0.4	896.3 ± 0.4	902.3 ± 0.4	908.6 ± 0.4	915.5 ± 0.4	921.8 ± 0.4	930.2 ± 0.4	936.6 ± 0.4
2000 kPa	887.4 ± 0.4	892.5 ± 0.4	898 ± 0.4	903.9 ± 0.4	910.1 ± 0.4	917 ± 0.4	923.1 ± 0.4	931.5 ± 0.4	937.8 ± 0.4
4000 kPa	889.3 ± 0.4	894.4 ± 0.4	899.8 ± 0.4	905.7 ± 0.4	911.7 ± 0.4	918.5 ± 0.4	924.6 ± 0.4	932.8 ± 0.4	939.1 ± 0.4
6000 kPa	891.2 ± 0.4	896.3 ± 0.4	901.6 ± 0.4	907.3 ± 0.4	913.3 ± 0.4	920 ± 0.4	926 ± 0.4	934.2 ± 0.4	940.3 ± 0.4
7900 kPa	–	–	–	–	–	–	927.5 ± 0.4	–	–
8000 kPa	893.1 ± 0.4	898.1 ± 0.4	903.3 ± 0.4	908.9 ± 0.4	914.9 ± 0.4	921.5 ± 0.4	–	935.4 ± 0.4	941.5 ± 0.4
10000 kPa	895.1 ± 0.5	900 ± 0.5	905.1 ± 0.5	910.7 ± 0.5	916.6 ± 0.5	923 ± 0.5	928.8 ± 0.5	936.8 ± 0.5	942.9 ± 0.5
11900 kPa	–	–	–	–	918 ± 0.5	–	–	–	–
12000 kPa	896.9 ± 0.5	901.6 ± 0.5	906.8 ± 0.5	912.2 ± 0.5	–	924.4 ± 0.5	930.3 ± 0.5	938.1 ± 0.5	944.1 ± 0.5
14000 kPa	898.6 ± 0.5	903.4 ± 0.5	908.4 ± 0.5	913.8 ± 0.5	919.5 ± 0.5	925.9 ± 0.5	931.7 ± 0.5	939.3 ± 0.5	945.3 ± 0.5
16000 kPa	900.4 ± 0.5	905.1 ± 0.5	910.1 ± 0.5	915.3 ± 0.5	921 ± 0.5	927.21 ± 0.5	933 ± 0.5	940.6 ± 0.5	946.4 ± 0.5
18000 kPa	902.1 ± 0.6	906.8 ± 0.6	911.7 ± 0.5	916.7 ± 0.5	922.4 ± 0.5	–	934.3 ± 0.5	941.8 ± 0.5	947.5 ± 0.5
18100 kPa	–	–	–	–	–	928.6 ± 0.5	–	–	–
20000 kPa	903.8 ± 0.6	908.7 ± 0.6	913.1 ± 0.6	918.3 ± 0.6	924 ± 0.5	930.2 ± 0.5	935.6 ± 0.5	943.3 ± 0.5	949.1 ± 0.5

CCCCCCCl [1-chlorohexane] + CC(=O)N(C)C
mass density [kg/m3]
Conditions	x2 = 0.0952	x2 = 0.2003	x2 = 0.3011	x2 = 0.4036	x2 = 0.503	x2 = 0.6051	x2 = 0.6992	x2 = 0.8013	x2 = 0.8996
100 kPa	877.1 ± 0.5	881.6 ± 0.5	886.4 ± 0.5	891.9 ± 0.5	897.5 ± 0.5	903.8 ± 0.4	910.4 ± 0.4	918.4 ± 0.4	926.8 ± 0.4
2000 kPa	878.7 ± 0.5	883.2 ± 0.5	888 ± 0.5	893.41 ± 0.48	899 ± 0.5	905.2 ± 0.5	911.7 ± 0.5	919.7 ± 0.5	928.1 ± 0.4
4000 kPa	880.4 ± 0.5	884.8 ± 0.5	889.5 ± 0.5	895 ± 0.5	900.4 ± 0.5	906.7 ± 0.5	913.1 ± 0.5	921 ± 0.5	929.3 ± 0.5
6000 kPa	882 ± 0.6	886.4 ± 0.6	891.2 ± 0.6	896.5 ± 0.5	901.9 ± 0.5	908.1 ± 0.5	914.5 ± 0.5	922.3 ± 0.5	930.5 ± 0.5
8000 kPa	883.6 ± 0.6	888 ± 0.6	892.7 ± 0.6	898 ± 0.6	903.4 ± 0.6	909.5 ± 0.5	915.9 ± 0.5	923.6 ± 0.5	931.7 ± 0.5
10000 kPa	885.3 ± 0.6	889.6 ± 0.6	894.3 ± 0.6	899.6 ± 0.6	904.9 ± 0.6	910.9 ± 0.6	917.3 ± 0.5	925 ± 0.5	933.1 ± 0.5
11900 kPa	–	–	–	–	–	–	918.6 ± 0.6	–	–
12000 kPa	886.8 ± 0.7	891.2 ± 0.7	895.8 ± 0.6	901 ± 0.6	906.3 ± 0.6	912.3 ± 0.6	–	926.3 ± 0.5	934.3 ± 0.5
14000 kPa	888.4 ± 0.7	892.78 ± 0.68	897.2 ± 0.7	902.4 ± 0.7	907.6 ± 0.6	913.6 ± 0.6	919.9 ± 0.6	927.5 ± 0.6	935.5 ± 0.5
16000 kPa	889.9 ± 0.7	894.1 ± 0.7	898.7 ± 0.7	903.8 ± 0.7	909 ± 0.7	914.9 ± 0.6	921.2 ± 0.6	928.7 ± 0.6	936.6 ± 0.6
18000 kPa	891.3 ± 0.8	895.6 ± 0.7	900.1 ± 0.7	905.2 ± 0.7	910.3 ± 0.7	916.2 ± 0.7	922.6 ± 0.6	929.9 ± 0.6	937.7 ± 0.6
20000 kPa	892.9 ± 0.8	897.2 ± 0.8	901.8 ± 0.7	–	911.8 ± 0.7	917.7 ± 0.67	924 ± 0.6	931.3 ± 0.6	–
20100 kPa	–	–	–	906.8 ± 0.7	–	–	–	–	939 ± 0.6
